Test [1] can be described thus: Acetic Acid-induced Rat Writhing Assay (analgesic activity). Format: in vivo. The conditions noted are these: 10 mg/Kg, oral, male Sprague Dawley rats. The text has this: The analgesic activity of compounds of this invention may be determined by the Acetic Acid-induced Rat Writhing Assay, using a modification of the method described in Berkenkopf, J. W. and Weichman, B. M. "Production of Prostacyclin in Mice following Intraperitoneal Injection of Acetic Acid, Phenylbenzoquinone and Zymosan: Its Role in the Writhing Response". Prostaglandins: 36: 693-70 (1988). This assay is one of several acute assays which have been used to assess the analgesic activity of NSAIDs, and is considered predictive of human efficacy. The test materials were administered orally to male Sprague Dawley rats in a volume of 1 ml/100 g body weight as solutions or suspensions in an aqueous vehicle containing 0.9% NaCl, 0.5% sodium carboxymethyl-cellulose, 0.4% polysorbate 80, 0.9% benzyl alcohol and 97.3% water. Control rats received vehicle alone. One hour after compound administration, 0.3 ml/100 g body weight of 0.75% solution of acetic acid was injected intraperitoneally. The acetic acid injection induces a series of characteristic writhing responses, which were counted over the period between 15 and 30 minutes after the injection. The analgesic activity of test materials is expressed as the percentage inhibition of writhing in the test group relative to the control group.

Another test addresses T1, COX II (Homo sapiens, UniProt P35354).
T1 sequence (P35354 18-604): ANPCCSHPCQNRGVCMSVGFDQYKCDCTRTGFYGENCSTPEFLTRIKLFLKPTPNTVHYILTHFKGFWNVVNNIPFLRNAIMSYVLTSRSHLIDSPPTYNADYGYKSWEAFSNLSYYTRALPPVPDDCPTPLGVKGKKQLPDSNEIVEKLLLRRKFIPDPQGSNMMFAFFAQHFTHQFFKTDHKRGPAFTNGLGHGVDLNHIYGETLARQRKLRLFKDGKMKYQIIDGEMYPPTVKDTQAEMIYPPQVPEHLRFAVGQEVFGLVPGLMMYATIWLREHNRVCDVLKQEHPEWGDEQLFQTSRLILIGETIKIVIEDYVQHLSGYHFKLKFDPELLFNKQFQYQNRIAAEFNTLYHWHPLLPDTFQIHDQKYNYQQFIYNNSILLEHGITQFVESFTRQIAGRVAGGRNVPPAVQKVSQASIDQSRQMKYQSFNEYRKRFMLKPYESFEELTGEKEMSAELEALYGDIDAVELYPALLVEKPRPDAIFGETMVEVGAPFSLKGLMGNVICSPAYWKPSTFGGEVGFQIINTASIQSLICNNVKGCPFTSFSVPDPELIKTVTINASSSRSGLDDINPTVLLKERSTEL
The test can be described thus: Inhibition of COX II in a cell based assay (human foreskin fibroblasts, PGE2 ELISA). The conditions noted are these: human foreskin fibroblasts (HFF). Set-up: host or cells: primary human foreskin fibroblasts (HFF), induced with PMA and human interleukin-1. The method, then: The COX I and COX II inhibitory activity of compounds of this invention in a cell based assay was determined as described below.
The inhibitory activity of test compounds against cell associated COX-2 was measured using primary cultures of human foreskin fibroblasts (HFF). HFF cultures were obtained from ATCC, grown in DMEM medium (Gibco) and used between 13-30 passages. Cells were plated in 96-well microtiter plates at a density of 6-8×10^4 cells/well in DMEM containing 10% fetal calf serum (Sigma) and cultured at 37° C. until they became confluent. The medium was removed and the cells were washed once with PBS. COX-2 activity was induced by incubating the cells with fresh DMEM containing 0.1 μM phorbol 12-myristate 13-acetate (PMA, Sigma) and 1ng/ml of human interleukin-1 (Sigma) at 37° C. After 16 h the medium was removed and the cells were washed twice with phosphate buffered saline (PBS, Gibco). 200 μl/well of fresh medium containing desired concentrations of the test compounds in DMSO, or the carrier vehicle (control wells) was added and the cells incubated at 37° C. for 30 minutes; after which 5 μM calcium ionophore A23187 (Sigma) was added and the incubation was continued for an additional 10 minutes. The reaction was terminated by transferring the plates to ice. The culture supernatants were transferred and appropriately diluted, and the amount of prostaglandin E2 (PGE2) present in each supernatant was quantitated using an ELISA kit (Cayman Chemicals).
The COX I and COX II inhibitory activities in the cell based assay (expressed as IC50) of some compounds of the invention were: […]
(In general: An ELISA detects its analyte on a solid surface through an enzyme-linked reagent.)

A short description of test [2]: Carrageenan-induced paw edema in the rat (anti-inflammatory activity). Format: in vivo. The conditions noted are these: 3 h, 10 mg/Kg, oral, female rats, read-out: % inhibition of increase in hind paw weight. The method, then:
The anti-inflammatory activity of compounds of this invention was determined by measuring the inhibition of carrageenan-induced paw edema in the rat, using a modification of the method described in Winter C. k et al (1962) "Carrageenan-Induced Edema in Hind Paw of the Rat as an Assay for Anti-inflammatory Drugs". Proc. Soc. Exp. Biol. Med. 111: 544-547. This assay has been used as a primary in vivo screen for anti-inflammatory activity of most NSAIDs, and is considered predictive of human efficacy. Briefly, test materials were administered orally to female rats in a volume of 1 ml prepared as solutions or suspensions in an aqueous vehicle containing 0.9% NaCl, 0.5% sodium carboxymethyl-cellulose, 0.4% polysorbate 80, 0.9% benzyl alcohol and 97.3% distilled water. Control rats received vehicle alone. After 1 hr 0.05 ml of a 0.5% solution of Carrageenan (Type IV Lambda, Sigma Chemical Co.) in 0.9% saline was injected into the subplantar region of the right hind paw. Three hours later the rats were euthanized in a carbon dioxide atmosphere; hind paws were removed by severing at the tatso-crural joint; and the left and right paws were weighed. The increase in weight of the right paw over the left paw was obtained for each animal and the mean increases were calculated for each group. The anti-inflammatory activity of the test materials is expressed as the percent inhibition of the increase in hind paw weight of the test group relative to the vehicle-dosed control group.
The anti-inflammatory activities (expressed as % inhibition) of some of the compounds of the invention were: […]
For orientation: In the carrageenan paw model, swelling and tenderness develop within hours.

Molecules are shown by their SMILES.

The IC50 is the concentration at which inhibition is half-maximal. Low readings indicate greater potency in that assay, high ones weaker potency in that assay. Turning to `COc1ccc(C(=O)c2cccc(Cc3ccc(=O)[nH]n3)c2C)cc1` [Cpd 11, 6-[3-(4-methoxybenzoyl)-2-methylbenzyl]-2H-pyridazin-3-one], the “% inhibition of writhing responses” value in test [1] was 10%. This molecule showed an IC50 against COX II of 2000 nM. In addition, the inhibition in vivo at 10 mg/kg in test [2] was determined as 44%.

The values are drawn from patent publication US5886178A, “3-aroylbenzylpyridazinone derivatives” (Syntex (U.S.A.) Inc., priority 1997, dated 1999).
